According to US9682141B2, “Combination of kinase inhibitors and uses thereof” (INTELLIKINE LLC, priority 2011, dated 2017):
pIC50: −log10 of the molar value.

Tests used:
Assay type in all cases: biochemical
PI3K δ = PI3K δ (Homo sapiens (Human), UniProt O00329); test: PI 3-Kinase (human) HTRF assay, p110δ/p85α
PI3K γ = PI3K γ (Homo sapiens (Human), UniProt P48736); test: PI 3-Kinase (human) HTRF assay, p110γ; conditions: read-out: PI3K γ IC50
mTORC = mTORC (Homo sapiens (Human), UniProt P42345); test: mTOR inhibition assay (radiometric or LanthaScreen TR-FRET)
Method: The compounds described herein can be tested against recombinant mTOR (Invitrogen) in an assay containing 50 mM HEPES, pH 7.5, 1 mM EGTA, 10 mM MgCl2, 2.5 mM, 0.01% Tween, 10 μM ATP (2.5 μCi of μ-32P-ATP), and 3 μg/mL BSA. Rat recombinant PHAS-1/4EBP1 (Calbiochem; 2 mg/mL) is used as a substrate. Reactions are terminated by spotting onto nitrocellulose, which is washed with 1M NaCl/1% phosphoric acid (approximately 6 times, 5-10 minutes each). Sheets are dried and the transferred radioactivity quantitated by phosphorimaging.
For instance, one can use Invitrogen's LanthaScreen™ Kinase assay to test the inhibitors of mTOR disclosed herein. This assay is a time resolved FRET platform that measures the phosphorylation of GFP labeled 4EBP1 by mTOR kinase. The kinase reaction is performed in a white 384 well microtitre plate. The total reaction volume is 20 ul per well and the reaction buffer composition is 50 mM HEPES pH7.5, 0.01% Polysorbate 20, 1 mM EGTA, 10 mM MnCl2, and 2 mM DTT. In the first step, each well receives 2 ul of test compound in 20% dimethylsulphoxide resulting in a 2% DMSO final concentration. Next, 8 ul of mTOR diluted in reaction buffer is added per well for a 60 ng/ml final concentration. To start the reaction, 10 ul of an ATP/GFP-4EBP1 mixture (diluted in reaction buffer) is added per well for a final concentration of 10 μM ATP and 0.5 μM GFP-4EBP1. The plate is sealed and incubated for 1 hour at room temperature. […] The plate is sealed, incubated for 1 hour at room temperature, and then read on a plate reader set up for LanthaScreen™ TR-FRET. Data is analyzed and IC50s are generated using GraphPad Prism 5.

PI3K α = PI3K α (Homo sapiens (Human), UniProt P42336); test: PI 3-Kinase (human) HTRF assay, p110α/p85α
PI3K β = PI3K β (Homo sapiens (Human), UniProt P42338); test: PI 3-Kinase (human) HTRF assay, p110β/p85α
PI3K β, sequence (P42338 whole entry): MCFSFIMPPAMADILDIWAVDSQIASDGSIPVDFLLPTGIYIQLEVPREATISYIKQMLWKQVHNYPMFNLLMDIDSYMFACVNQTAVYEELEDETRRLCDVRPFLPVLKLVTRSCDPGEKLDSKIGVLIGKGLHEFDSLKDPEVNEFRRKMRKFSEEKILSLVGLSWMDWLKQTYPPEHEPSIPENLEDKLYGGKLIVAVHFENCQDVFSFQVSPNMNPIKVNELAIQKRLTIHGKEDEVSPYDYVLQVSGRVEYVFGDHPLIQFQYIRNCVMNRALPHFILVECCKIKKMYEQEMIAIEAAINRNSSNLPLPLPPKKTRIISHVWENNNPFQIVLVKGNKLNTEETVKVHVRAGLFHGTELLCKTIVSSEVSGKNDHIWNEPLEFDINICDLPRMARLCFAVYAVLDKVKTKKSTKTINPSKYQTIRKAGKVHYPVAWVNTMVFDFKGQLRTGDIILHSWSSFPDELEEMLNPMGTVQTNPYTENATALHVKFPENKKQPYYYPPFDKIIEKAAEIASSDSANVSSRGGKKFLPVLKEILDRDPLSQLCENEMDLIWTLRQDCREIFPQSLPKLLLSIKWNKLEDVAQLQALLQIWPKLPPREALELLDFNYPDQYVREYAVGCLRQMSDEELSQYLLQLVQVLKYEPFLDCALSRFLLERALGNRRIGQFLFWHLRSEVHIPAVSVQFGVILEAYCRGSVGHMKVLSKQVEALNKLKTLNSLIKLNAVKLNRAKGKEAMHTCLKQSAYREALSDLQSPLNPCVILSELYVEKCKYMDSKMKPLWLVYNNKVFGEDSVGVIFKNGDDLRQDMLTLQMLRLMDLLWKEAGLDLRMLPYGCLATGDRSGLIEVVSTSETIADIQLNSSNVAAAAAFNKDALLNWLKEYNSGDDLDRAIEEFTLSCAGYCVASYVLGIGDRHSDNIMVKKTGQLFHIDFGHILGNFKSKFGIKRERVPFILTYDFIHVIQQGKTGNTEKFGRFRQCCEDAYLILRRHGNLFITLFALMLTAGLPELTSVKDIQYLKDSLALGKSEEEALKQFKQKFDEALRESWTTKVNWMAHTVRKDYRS
PI3K β, sequence (P27986 whole entry partner): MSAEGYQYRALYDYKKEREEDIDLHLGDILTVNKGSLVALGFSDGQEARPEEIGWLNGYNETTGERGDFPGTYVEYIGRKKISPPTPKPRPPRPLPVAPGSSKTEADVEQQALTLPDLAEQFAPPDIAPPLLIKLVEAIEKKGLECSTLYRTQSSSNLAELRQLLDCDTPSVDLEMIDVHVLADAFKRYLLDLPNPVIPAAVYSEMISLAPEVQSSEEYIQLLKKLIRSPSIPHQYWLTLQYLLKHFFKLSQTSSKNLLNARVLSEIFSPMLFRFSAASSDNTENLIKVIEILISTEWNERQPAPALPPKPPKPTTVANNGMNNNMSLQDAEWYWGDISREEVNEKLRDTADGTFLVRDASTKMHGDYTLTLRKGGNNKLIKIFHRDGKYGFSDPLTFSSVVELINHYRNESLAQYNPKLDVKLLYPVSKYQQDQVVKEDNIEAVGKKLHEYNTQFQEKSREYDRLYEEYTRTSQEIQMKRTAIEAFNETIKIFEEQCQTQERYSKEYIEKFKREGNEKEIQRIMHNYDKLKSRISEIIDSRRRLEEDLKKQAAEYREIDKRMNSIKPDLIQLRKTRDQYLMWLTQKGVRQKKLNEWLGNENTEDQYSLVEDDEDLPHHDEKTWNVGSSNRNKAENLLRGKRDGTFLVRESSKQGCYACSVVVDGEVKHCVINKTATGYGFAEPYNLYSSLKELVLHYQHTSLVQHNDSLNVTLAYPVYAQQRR

PI3K α, sequence (P42336 whole entry): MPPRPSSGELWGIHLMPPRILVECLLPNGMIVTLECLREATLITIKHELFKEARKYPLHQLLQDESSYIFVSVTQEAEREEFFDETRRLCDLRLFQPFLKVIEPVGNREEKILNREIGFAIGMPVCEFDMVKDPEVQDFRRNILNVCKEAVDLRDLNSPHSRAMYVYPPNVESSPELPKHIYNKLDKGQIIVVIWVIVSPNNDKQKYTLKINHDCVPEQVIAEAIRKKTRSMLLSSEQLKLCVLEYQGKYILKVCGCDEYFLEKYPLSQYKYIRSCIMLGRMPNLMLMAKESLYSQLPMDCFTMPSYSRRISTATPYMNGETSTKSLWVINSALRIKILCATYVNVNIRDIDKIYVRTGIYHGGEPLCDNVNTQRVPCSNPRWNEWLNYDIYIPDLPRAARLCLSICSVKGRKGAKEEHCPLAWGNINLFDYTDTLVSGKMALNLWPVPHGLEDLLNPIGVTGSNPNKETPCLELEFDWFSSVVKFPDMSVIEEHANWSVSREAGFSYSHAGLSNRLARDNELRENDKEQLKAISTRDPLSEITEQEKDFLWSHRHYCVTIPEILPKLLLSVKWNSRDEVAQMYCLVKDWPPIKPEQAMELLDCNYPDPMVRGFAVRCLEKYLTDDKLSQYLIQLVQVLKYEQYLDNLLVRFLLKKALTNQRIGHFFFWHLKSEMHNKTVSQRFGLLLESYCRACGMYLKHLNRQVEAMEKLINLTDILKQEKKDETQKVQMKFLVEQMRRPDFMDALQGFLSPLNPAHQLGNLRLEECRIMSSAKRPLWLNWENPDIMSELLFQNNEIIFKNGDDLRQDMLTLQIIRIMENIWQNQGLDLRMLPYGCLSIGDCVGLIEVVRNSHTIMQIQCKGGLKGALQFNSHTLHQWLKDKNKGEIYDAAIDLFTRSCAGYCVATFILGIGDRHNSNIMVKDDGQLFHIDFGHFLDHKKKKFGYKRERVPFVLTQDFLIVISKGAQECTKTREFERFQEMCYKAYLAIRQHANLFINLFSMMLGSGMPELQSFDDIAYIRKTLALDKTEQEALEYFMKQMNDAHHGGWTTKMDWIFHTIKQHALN
PI3K α, sequence (P27986 whole entry partner): as the sequence (P27986 whole entry partner) above
PI3K δ, sequence (O00329 whole entry): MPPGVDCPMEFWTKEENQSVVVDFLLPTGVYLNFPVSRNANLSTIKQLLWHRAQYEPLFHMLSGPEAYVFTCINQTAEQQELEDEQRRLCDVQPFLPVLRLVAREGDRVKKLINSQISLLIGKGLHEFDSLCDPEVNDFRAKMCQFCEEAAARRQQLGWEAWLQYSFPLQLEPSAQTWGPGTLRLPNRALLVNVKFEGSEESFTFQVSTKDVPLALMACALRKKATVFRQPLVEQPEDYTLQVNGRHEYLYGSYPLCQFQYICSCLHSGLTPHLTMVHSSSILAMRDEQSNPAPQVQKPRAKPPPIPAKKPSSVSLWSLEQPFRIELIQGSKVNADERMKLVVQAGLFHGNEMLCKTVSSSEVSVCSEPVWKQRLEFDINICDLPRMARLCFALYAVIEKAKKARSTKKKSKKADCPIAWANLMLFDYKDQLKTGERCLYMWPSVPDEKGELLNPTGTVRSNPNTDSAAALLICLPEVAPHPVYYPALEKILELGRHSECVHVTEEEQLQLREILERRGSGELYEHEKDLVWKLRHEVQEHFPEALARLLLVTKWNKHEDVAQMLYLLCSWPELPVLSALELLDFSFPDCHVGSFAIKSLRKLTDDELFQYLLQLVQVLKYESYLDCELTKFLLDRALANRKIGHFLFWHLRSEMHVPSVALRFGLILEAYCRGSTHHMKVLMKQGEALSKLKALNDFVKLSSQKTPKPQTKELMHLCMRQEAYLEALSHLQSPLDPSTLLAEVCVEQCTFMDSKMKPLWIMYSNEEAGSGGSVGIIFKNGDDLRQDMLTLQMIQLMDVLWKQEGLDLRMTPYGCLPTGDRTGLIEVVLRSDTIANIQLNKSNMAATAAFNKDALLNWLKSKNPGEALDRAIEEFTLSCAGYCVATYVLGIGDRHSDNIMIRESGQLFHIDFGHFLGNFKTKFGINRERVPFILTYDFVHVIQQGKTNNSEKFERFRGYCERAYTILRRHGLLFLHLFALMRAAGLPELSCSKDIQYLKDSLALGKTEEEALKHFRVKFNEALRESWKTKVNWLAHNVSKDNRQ
PI3K δ, sequence (P27986 whole entry partner): as the sequence (P27986 whole entry partner) above
PI3K γ, sequence (P48736 whole entry): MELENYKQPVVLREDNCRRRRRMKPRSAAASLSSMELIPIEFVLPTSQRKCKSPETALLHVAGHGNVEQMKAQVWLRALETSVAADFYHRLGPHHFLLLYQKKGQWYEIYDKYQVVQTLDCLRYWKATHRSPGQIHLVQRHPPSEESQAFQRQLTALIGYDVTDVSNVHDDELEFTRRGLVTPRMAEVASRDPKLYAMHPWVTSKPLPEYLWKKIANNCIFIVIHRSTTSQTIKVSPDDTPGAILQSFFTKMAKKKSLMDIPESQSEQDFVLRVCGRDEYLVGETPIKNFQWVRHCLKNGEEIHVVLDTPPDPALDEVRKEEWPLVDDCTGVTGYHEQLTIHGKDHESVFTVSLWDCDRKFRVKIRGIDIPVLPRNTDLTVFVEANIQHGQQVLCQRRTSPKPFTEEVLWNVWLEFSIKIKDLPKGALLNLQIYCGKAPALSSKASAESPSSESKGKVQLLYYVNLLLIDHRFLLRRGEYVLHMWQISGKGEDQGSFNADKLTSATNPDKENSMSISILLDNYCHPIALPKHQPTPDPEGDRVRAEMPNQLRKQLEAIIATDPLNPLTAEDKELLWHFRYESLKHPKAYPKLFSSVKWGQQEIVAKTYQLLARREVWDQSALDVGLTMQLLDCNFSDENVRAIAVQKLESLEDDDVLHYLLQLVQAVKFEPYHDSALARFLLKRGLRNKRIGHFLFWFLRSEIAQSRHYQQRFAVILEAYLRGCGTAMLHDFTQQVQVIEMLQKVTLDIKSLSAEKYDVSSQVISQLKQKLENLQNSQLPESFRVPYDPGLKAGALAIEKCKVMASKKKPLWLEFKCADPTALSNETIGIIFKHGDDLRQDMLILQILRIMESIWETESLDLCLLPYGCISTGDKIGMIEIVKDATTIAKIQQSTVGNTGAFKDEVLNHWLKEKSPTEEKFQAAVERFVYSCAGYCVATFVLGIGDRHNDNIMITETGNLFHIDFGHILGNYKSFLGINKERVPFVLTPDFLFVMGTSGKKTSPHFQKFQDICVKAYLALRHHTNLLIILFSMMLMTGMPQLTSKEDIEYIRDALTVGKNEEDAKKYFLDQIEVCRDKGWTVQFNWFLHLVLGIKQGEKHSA

SMILES | pIC50 (PI3K δ) | pIC50 (PI3K γ) | pIC50 (mTORC) | pIC50 (PI3K α) | pIC50 (PI3K β)
Nc1nc2cc(-c3ccc4ncc(C(=O)N5CCOCC5)n4c3)ccc2o1 | > 5.00 | > 5.00 | > 5.00 | > 7.00 | > 5.00
Cc1nc2ccc(-c3ccc4oc(N)nc4c3)nn2c1-c1ccncc1 | < 5.00 | > 7.00 | > 6.00 | > 7.00 | > 6.00
CC(=O)N1CCC(Nc2ncnc3ccc(-c4ccc5oc(N)nc5c4)cc23)CC1 | > 6.00 | > 7.00 | > 6.00 | > 7.00 | > 5.00
Nc1nc2cc(-c3ccn4ncc(-c5ccncc5)c4n3)ccc2o1 | > 7.00 | > 7.00 | > 7.00 | > 7.00 | > 7.00
Nc1nc2cc(-c3ccc4ncc(N5CCOCC5)nc4c3)ccc2o1 | < 5.00 | > 7.00 | > 5.00 | > 7.00 | > 6.00
Nc1nc2cc(-c3ccc4ncc(=O)[nH]c4c3)ccc2o1 | < 5.00 | > 7.00 | > 6.00 | > 7.00 | > 6.00
CC(C)N1CCC(n2cnc3ccc(-c4ccc5oc(N)nc5c4)cc3c2=O)CC1 | < 5.00 | > 5.00 | > 5.00 | > 7.00 | > 5.00
Nc1nc2cc(-c3ccc4ncc(-c5cccnc5)nc4c3)ccc2o1 | < 5.00 | > 6.00 | > 5.00 | > 7.00 | < 5.00
N#Cc1cnc2ccc(-c3ccc4oc(N)nc4c3)cc2c1 | < 5.00 | > 6.00 | > 5.00 | > 6.00 | < 5.00
CCOC(=O)N1CCN(c2cnc3ccc(-c4ccc5oc(N)nc5c4)cc3n2)CC1 | > 5.00 | > 5.00 | > 5.00 | > 7.00 | > 5.00
CS(=O)(=O)N1CCN(Cc2cc3nc(-c4ccc5oc(N)nc5c4)nc(N4CCOCC4)c3s2)CC1 | > 6.00 | > 7.00 | > 6.00 | > 7.00 | > 6.00
Nc1nc2cc(-c3ccc4ncc(N5CCNC(=O)C5)nc4c3)ccc2o1 | < 5.00 | > 6.00 | < 5.00 | > 7.00 | > 6.00
CC(=O)N1CCC(N(C)c2ncnc3ccc(-c4ccc5oc(N)nc5c4)cc23)CC1 | > 6.00 | > 6.00 | < 5.00 | > 7.00 | > 6.00
CN1CC(C(=O)N2CCN(c3cnc4ccc(-c5ccc6oc(N)nc6c5)cc4n3)CC2)C1 | > 6.00 | > 6.00 | < 5.00 | > 7.00 | > 6.00
Nc1nc2cc(-c3ccc4ncc(N5CCC(N6CCOCC6)CC5)nc4c3)ccc2o1 | > 6.00 | > 6.00 | < 5.00 | > 7.00 | > 6.00
Nc1nc2cc(-c3ccc4ncc(N5CC(N6CCOCC6)C5)nc4n3)ccc2o1 | > 5.00 | > 5.00 | > 5.00 | > 7.00 | < 5.00
C[C@H]1CN(C2CN(c3cnc4ccc(-c5ccc6oc(N)nc6c5)nc4n3)C2)CCN1 | > 5.00 | > 5.00 | > 5.00 | > 7.00 | < 5.00
Nc1nc2cc(-c3ccc4ncc(N5C6CCC5COC6)nc4n3)ccc2o1 | < 5.00 | > 7.00 | < 5.00 | > 7.00 | < 5.00
Nc1nc2cc(-c3ccc4ncc(N5CC(N6CCN(CC7CC7)CC6)C5)nc4n3)ccc2o1 | > 5.00 | > 5.00 | < 5.00 | > 7.00 | > 5.00
CC(C)(N)C(=O)N1CCN(c2cnc3ccc(-c4ccc5oc(N)nc5c4)nc3n2)CC1 | > 5.00 | > 5.00 | < 5.00 | > 7.00 | > 5.00
Nc1nc2cc(-c3ccc4ncc(N5CCN(C(=O)C6(N)CC6)CC5)nc4n3)ccc2o1 | > 5.00 | > 7.00 | > 5.00 | > 7.00 | > 5.00
CC(C)N1CCN(c2cnc3ccc(-c4ccc5oc(N)nc5c4)nc3c2)CC1 | > 6.00 | > 6.00 | < 5.00 | > 7.00 | > 6.00
Nc1nc2cc(-c3ccc4ncc(N5CC(N6CCN(CCO)CC6)C5)nc4n3)ccc2o1 | > 5.00 | > 5.00 | < 5.00 | > 7.00 | > 5.00
C[C@H]1CN(c2cnc3ccc(-c4ccc5oc(N)nc5c4)nc3c2)CCN1 | > 5.00 | > 6.00 | < 5.00 | > 7.00 | > 7.00
Cc1nccn1C1CN(c2cnc3ccc(-c4ccc5oc(N)nc5c4)nc3n2)C1 | > 5.00 | > 5.00 | < 5.00 | > 7.00 | > 5.00

SMILES | pIC50 (PI3K δ) | pIC50 (PI3K γ) | pIC50 (mTORC) | pIC50 (PI3K α) | pIC50 (PI3K β)
CC1(C)CN(C2CN(c3cnc4ccc(-c5ccc6oc(N)nc6c5)nc4n3)C2)CCN1 | > 6.00 | > 5.00 | < 5.00 | > 7.00 | > 5.00
Nc1nc2cc(-c3ccc4ncc(N5CC(N6CCOCC6)C5)cc4n3)ccc2o1 | > 5.00 | > 6.00 | < 5.00 | > 7.00 | > 5.00
C[C@H]1CN(C2CN(c3cnc4ccc(-c5ccc6oc(N)nc6c5)nc4c3)C2)CCN1 | > 6.00 | > 5.00 | < 5.00 | > 7.00 | > 5.00
C[C@H]1CN(C2CN(c3cnc4ccc(-c5ccc6oc(N)nc6c5)nc4c3)C2)CCN1C | > 6.00 | > 5.00 | < 5.00 | > 7.00 | > 5.00
C[C@@H]1CN(C2CN(c3cnc4ccc(-c5ccc6oc(N)nc6c5)nc4c3)C2)CCN1 | > 6.00 | > 6.00 | < 5.00 | > 7.00 | > 5.00
C[C@@H]1CN(C2CN(c3cnc4ccc(-c5ccc6oc(N)nc6c5)nc4c3)C2)CCN1C | > 6.00 |  | < 5.00 | > 7.00 | > 5.00
CC1(C)CN(C2CN(c3cnc4ccc(-c5ccc6oc(N)nc6c5)nc4c3)C2)CCN1 | > 6.00 | > 6.00 | < 5.00 | > 7.00 | > 5.00
Nc1nc2cc(-c3ccc4ncc(N5CC(N6CCN(CC7CC7)CC6)C5)cc4n3)ccc2o1 | > 6.00 | > 5.00 | < 5.00 | > 7.00 | > 5.00
C[C@H]1COCCN1C1CN(c2cnc3ccc(-c4ccc5oc(N)nc5c4)nc3n2)C1 | > 5.00 |  | < 5.00 | > 7.00 | < 5.00
Cc1nccn1C1CN(c2cnc3ccc(-c4ccc5oc(N)nc5c4)nc3c2)C1 | > 6.00 | > 7.00 | < 5.00 | > 7.00 | > 5.00
CN1CCN(C2CN(c3cnc4ccc(-c5ccc6oc(N)nc6c5)nc4c3)C2)CC1=O | > 6.00 | > 7.00 | > 5.00 | > 7.00 | > 5.00
Nc1nc2cc(-c3ccc4ncc(N5CC(N6CCN(CCO)CC6)C5)cc4n3)ccc2o1 | > 6.00 | > 6.00 | < 5.00 | > 7.00 | > 5.00
CN1CCN(C2CN(c3cnc4ccc(-c5ccc6oc(N)nc6c5)nc4n3)C2)CC1 | > 6.00 | < 5.00 | < 5.00 | > 7.00 | > 5.00
CCN1CCN(C2CN(c3cnc4ccc(-c5ccc6oc(N)nc6c5)nc4n3)C2)CC1 | > 5.00 | > 5.00 | > 5.00 | > 7.00 | > 5.00
CN1CC2CN(c3cnc4ccc(-c5ccc6oc(N)nc6c5)nc4n3)CC2C1 (centres unmarked) | > 6.00 | > 5.00 | < 5.00 | > 7.00 | > 6.00
CC(=O)Nc1nc2ccc(-c3ccc4nccc(-c5ccncc5)c4c3)cc2s1 [Compound 2] | < 5.00 | > 6.00 | < 5.00 | > 6.00 | < 5.00
Nc1ccc2cc(-c3ccc4nccc(-c5ccncc5)c4c3)ccc2n1 [Compound 5] | > 5.00 | > 6.00 | > 6.00 | > 6.00 | < 5.00
Cn1cc(-c2cnc3ccc(-c4ccc5oc(N)nc5c4)cn23)cn1 [Compound 41] | > 6.00 | > 6.00 | > 5.00 | > 7.00 | 
CN1CCN(c2ccc(-c3cnc4ccc(-c5ccc6oc(N)nc6c5)cn34)cn2)CC1 [Compound 42] | > 6.00 | > 6.00 | < 5.00 | > 7.00 | 
CN1CCN(C(=O)c2cnc3ccc(-c4ccc5oc(N)nc5c4)cn23)CC1 [Compound 44] | > 5.00 | > 5.00 | > 5.00 | > 7.00 | 
N#Cc1cnc2ccc(-c3ccc4oc(N)nc4c3)cc2c1-c1ccncc1 [Compound 46] | > 7.00 | > 7.00 | > 7.00 | > 7.00 | 
Nc1nc2cc(-c3ccc4ncc(OC5CCOCC5)nc4c3)ccc2o1 [Compound 49] | > 5.00 | > 6.00 | > 5.00 | > 7.00 | 
Nc1nc2cc(-c3ccc4ncc(-c5ccc6nc(N)oc6c5)n4c3)ccc2o1 [Compound 50] | > 5.00 | > 7.00 | < 5.00 | > 7.00 | 
Nc1nc2cc(-c3ccc4ncc(-c5ccnc(N6CCOCC6)c5)n4c3)ccc2o1 [Compound 52] | > 7.00 | > 7.00 | > 5.00 | > 7.00 | 
